Source: patent US20240207353A1, “USE OF PEPTIDE AMIDE COMPOUND IN PREPARATION OF DRUG FOR TREATING PRURITUS” (XIZANG HAISCO PHARMACEUTICAL CO., LTD., priority 2021, published 2024)

Tests used:
[1] = system: serotonin hydrochloride-induced scratching behaviour in rats; assay: Antipruritic effect of single administration in rat models with pruritus induced by serotonin hydrochloride; format: in vivo, SD rats; details: intravenous
Description: SD rats (males) from Beijing Vital River Laboratory Animal Technology Co., Ltd. were randomly grouped, and then administered intravenously with different doses of compound 1 or normal saline. After 15 min, 10 μL of 2% serotonin hydrochloride (Sigma) was injected intradermally into the nape of the rats, and the times of scratching of rats within 60 min after injection of serotonin hydrochloride was immediately recorded. The obtained data were processed according to the formula [(times of scratching in solvent control group−times of scratching in administration group)/times of scratching in solvent control group×100] to calculate the inhibition ratio on scratching. Statistical analysis was performed with Graphpad Prism 8 software, and fitting was performed to obtain the ED50 value.

[2] = system: compound 48/80-induced scratching behaviour in mice; assay: Antipruritic effect by nasal drip in mouse models with pruritus induced by compound 48/80; format: in vivo, ICR mice
Description: (§1) ICR mice (males) from Beijing Vital River Laboratory Animal Technology Co., Ltd. were randomly grouped, and then different doses of compound 1 or normal saline were administered by nasal drip. After 15 min, 50 μg of compound 48/80 (Sigma, Cat #: C2313) was injected subcutaneously into the nape of the mice, and the times of scratching of mice within 30 min after injection of compound 48/80 was immediately recorded. The obtained data were processed according to the formula [(times of scratching in solvent control group−times of scratching in administration group)/times of scratching in solvent control group×100] to calculate the inhibition ratio on scratching. Statistical analysis was performed with Graphpad Prism 8 software, and fitting was performed to obtain the ED50 value.

[3] = system: compound 48/80-induced scratching behaviour in mice; assay: Antipruritic effect in mouse models with pruritus induced by compound 48/80, intravenous administration; format: in vivo, ICR mice
Description: as §1, with “then administered intravenously with” for “then”, “saline.” for “saline were administered by nasal drip.”

[4] = system: haemodialysis subjects with pruritus; assay: Phase II clinical study of safety, pharmacokinetics and efficacy in haemodialysis subjects; format: in vivo, human
Description: For compound 1, a multi-centre, randomized, double-blind, placebo-controlled phase II clinical trial for evaluating the safety, pharmacokinetics and efficacy of compound 1 injection in haemodialysis subjects was performed. This study was divided into two phases.
Phase I was a dose-escalation, randomized, double-blind, placebo-controlled study of multiple intravenous administration within 1 week in haemodialysis subjects, in which 40 haemodialysis subjects were scheduled to be enrolled into 4 dose groups: 0.05 μg/kg, 0.15 μg/kg, 0.30 μg/kg and 0.80 μg/kg, with 10 subjects in each group (including 2 subjects in placebo group), and the experimental drug was administered 3 times in each dose group on D1, D3 and D5, respectively.
Phase II was a randomized, double-blind, placebo-controlled study of administration for 12 weeks in haemodialysis subjects with moderate or more severe pruritus. According to the results of phase I study, two dose groups (0.3 μg/kg and 0.6 μg/kg) and a placebo group as control were selected for phase II study, in which 90 haemodialysis subjects with moderate or more severe pruritus were scheduled to be enrolled and assigned to the above-mentioned three groups according to a ratio of 1:1:1, with 30 subjects scheduled to be enrolled in each group, and compound 1 injection or placebo was administered, respectively.

[5] = 15 min before serotonin hydrochloride intradermal, scratching within 60 min
[6] = 15 min before compound 48/80 s.c., scratching within 30 min
[7] = maintenance haemodialysis, dose of 0.05 μg/kg to 0.80 μg/kg
[8] = maintenance haemodialysis, multiple times a week for consecutive 12 weeks
[9] = phase I, 0.05-0.80 μg/kg i.v. on D1, D3, D5, each group after treatment
[10] = phase II, 0.3 and 0.6 μg/kg, 12 weeks, each group after treatment

## CC(=O)N1CC2(CCN(C(=O)[C@@H](CCCCN)NC(=O)[C@@H](CC(C)C)NC(=O)[C@@H](Cc3ccccc3)NC(=O)[C@H](N)Cc3ccccc3)CC2)C1 [Compound 1, (2R)—N-[(1R)-1-(2-acetyl-2,7-diazaspiro[3.5]nonane-7-carbonyl)-5-amino-pentyl]-2-[[(2R)-2-[[(2R)-2-amino-3-phenyl-propionyl]amino]-3-phenylpropionyl]amino]-4-methyl-pentanamide]
[1]
  inhibition of serotonin hydrochloride-induced scratching behaviour: inhibited the serotonin hydrochloride-induced scratching behaviour in rats in a dose-dependent manner
[1]; [5]
  ED50 value (inhibition ratio on scratching): 0.03 mg/kg
  antipruritic effective dose: 0.03 mg/kg
[2]
  inhibition of compound 48/80-induced scratching behaviour: inhibited the compound 48/80-induced scratching behaviour in mice in a dose-dependent manner
[2]; [6]
  ED50 value (inhibition ratio on scratching): 2.72 mg/kg
  antipruritic effective dose: 0.3 mg/kg
[3]
  inhibition of compound 48/80-induced scratching behaviour: inhibited the compound 48/80-induced scratching behaviour in mice in a dose-dependent manner
[3]; [6]
  ED50 value (inhibition ratio on scratching): 0.09 mg/kg
  antipruritic effective dose: 0.03 mg/kg
[4]; 0.30 μg/kg group
  improvement compared to the placebo group: more significant improvement
  maintenance of therapeutic effects after discontinuation: good maintenance of therapeutic effects after discontinuation
[4]; [7]
  safety: generally safe
  serious adverse events related to the experimental drug: no serious adverse events related to the experimental drug
  withdrawal tendency after discontinuation: no obvious withdrawal tendency after discontinuation
[4]; [8]
  overall quality of life: improved
  pruritus symptoms in patients with chronic kidney diseases: could be effectively relieved
[4]; [9]
  NRS scores: all decreased compared to baseline
  total score of Skindex-16 scale: decreased
[4]; [10]
  NRS scores: all decreased compared to baseline
  total score and dimension scores of 5-D scale: all decreased compared to baseline
  total score and dimension scores of Skindex-16 scale: all decreased compared to baseline
